Results from ChEMBL document CHEMBL3739278, “Synthesis and evaluation of novel N-3-benzimidazolephenylbisamide derivatives for antiproliferative and Hedgehog pathway inhibitory activity” (Medchemcomm, 2015).

Assays:
[1] = molecular target: Protein smoothened (Homo sapiens, UniProt Q99835); assay: Displacement of boron-dipyrromethene-cyclopamine from human smoothened receptor expressed in HEK293 cells incubated for 4 hrs by hSMO-BC binding assay; assay type: cell-based
[2] = test system: HT-29; assay: Antiproliferative activity against human HT-29 cells assessed as cell growth inhibition after 48 hrs by MTT assay; assay type: functional, cell-based; details: HT-29, 48 h
[3] = Antiproliferative activity against human SW620 cells assessed as cell growth inhibition after 48 hrs by MTT assay; assay type: functional, cell-based; details: SW-620, 48 h
[4] = Antiproliferative activity against human MGC803 cells assessed as cell growth inhibition after 48 hrs by MTT assay; assay type: functional, cell-based; details: MGC-803, 48 h
[5] = Antiproliferative activity against human […] cells assessed as cell growth inhibition after 48 hrs by MTT assay; assay type: functional, cell-based
[6] = molecular target: Sonic hedgehog protein (Mus musculus, UniProt Q62226); assay: Inhibition of hedgehog signalling in mouse NIH3T3-Gli-luc cells after 48 hrs by dual luciferase reporter assay; assay type: cell-based
Sequence of Sonic hedgehog protein (Q62226 25-198 limits assumed): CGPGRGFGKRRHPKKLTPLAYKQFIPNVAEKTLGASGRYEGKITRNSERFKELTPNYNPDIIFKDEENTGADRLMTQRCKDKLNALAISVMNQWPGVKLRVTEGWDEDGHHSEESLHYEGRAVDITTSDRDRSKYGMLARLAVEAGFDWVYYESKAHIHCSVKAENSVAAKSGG

Sequence of Protein smoothened (Q99835 whole entry): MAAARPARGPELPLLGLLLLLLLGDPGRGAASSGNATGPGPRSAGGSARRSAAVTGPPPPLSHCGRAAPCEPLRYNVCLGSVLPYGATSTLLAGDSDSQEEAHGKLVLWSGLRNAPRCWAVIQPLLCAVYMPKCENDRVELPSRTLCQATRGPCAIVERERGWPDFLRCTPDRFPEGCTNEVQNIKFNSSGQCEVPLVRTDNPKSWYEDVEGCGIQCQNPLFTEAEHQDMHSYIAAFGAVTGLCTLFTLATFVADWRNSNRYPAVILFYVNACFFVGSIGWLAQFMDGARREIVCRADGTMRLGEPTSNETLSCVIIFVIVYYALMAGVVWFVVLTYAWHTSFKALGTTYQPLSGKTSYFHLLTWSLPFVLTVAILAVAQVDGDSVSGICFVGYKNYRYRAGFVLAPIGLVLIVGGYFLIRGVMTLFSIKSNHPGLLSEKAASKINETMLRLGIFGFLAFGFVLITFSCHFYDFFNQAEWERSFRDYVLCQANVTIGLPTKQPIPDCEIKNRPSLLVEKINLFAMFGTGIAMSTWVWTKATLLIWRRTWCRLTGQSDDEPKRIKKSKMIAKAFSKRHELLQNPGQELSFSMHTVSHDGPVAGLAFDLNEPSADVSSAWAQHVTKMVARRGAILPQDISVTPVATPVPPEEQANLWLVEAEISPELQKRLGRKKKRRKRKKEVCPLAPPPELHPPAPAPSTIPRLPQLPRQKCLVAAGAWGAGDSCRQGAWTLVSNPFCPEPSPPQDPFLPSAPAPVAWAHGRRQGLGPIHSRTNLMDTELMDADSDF

Compound | IC50 [1] | IC50 [2] | IC50 [6] | IC50 [3] | IC50 [4] | IC50 [5]
Cc1ccc(NC(=O)NC(=O)c2ccc(OCc3ccccc3F)cc2)cc1-c1nc2ccccc2[nH]1 | – | 0.76 µM | – | 4.11 µM | 2.52 µM | 1.83 µM
Cc1ccc(NC(=O)NC(=O)c2ccc(OCc3cccc(F)c3)cc2)cc1-c1nc2ccccc2[nH]1 | – | 38.2 µM | – | 39.6 µM | 44.8 µM | 53 µM
Cc1ccc(NC(=S)NC(=O)c2ccc(OCc3ccc(C(F)(F)F)cc3)cc2)cc1-c1nc2ccccc2[nH]1 | – | 17.6 µM | – | 72.4 µM | 6.5 µM | 10.2 µM
Cc1ccc(COc2ccc(C(=O)NC(=S)Nc3ccc(C)c(-c4nc5ccccc5[nH]4)c3)cc2)cc1 | – | 14.2 µM | – | 60.9 µM | 4.98 µM | 11.3 µM
Cc1ccc(COc2ccc(C(=O)NC(=O)Nc3ccc(C)c(-c4nc5ccccc5[nH]4)c3)cc2)cc1 | – | 5.11 µM | – | 26 µM | 4.25 µM | 6.36 µM
Cc1ccc(NC(=S)NC(=O)c2ccc(OCc3cccc(Cl)c3)cc2)cc1-c1nc2ccccc2[nH]1 | – | 35.3 µM | – | > 100 µM | 51.3 µM | 43.3 µM
O=C(NC(=O)c1ccc(OCc2ccc(F)cc2)cc1)Nc1ccc(Cl)c(-c2nc3ccccc3[nH]2)c1 | 0.042 µM | 0.73 µM | 0.032 µM | 33.6 µM | 0.061 µM | 0.35 µM
O=C(NC(=S)Nc1ccc(Cl)c(-c2nc3ccccc3[nH]2)c1)c1ccc(OCc2ccc(Cl)c(Cl)c2)cc1 | – | 4.93 µM | – | 24.9 µM | 5.17 µM | 4.6 µM
Cc1ccc(NC(=O)NC(=O)c2ccc(OCc3ccccc3Cl)cc2)cc1-c1nc2ccccc2[nH]1 | – | 9.01 µM | – | 35.7 µM | 19.5 µM | 21.5 µM
Cc1ccc(NC(=S)NC(=O)c2ccc(OCc3ccc(Cl)c(Cl)c3)cc2)cc1-c1nc2ccccc2[nH]1 | – | 6.27 µM | – | 30.7 µM | 6.39 µM | 8.41 µM
Cc1ccc(NC(=S)NC(=O)c2ccc(OCc3ccc(Cl)cc3Cl)cc2)cc1-c1nc2ccccc2[nH]1 | – | 11.6 µM | – | 57.2 µM | 3.45 µM | 5.3 µM
Cc1ccc(COc2ccc(C(=O)NC(=O)Nc3ccc(Cl)c(-c4nc5ccccc5[nH]4)c3)cc2)cc1 | – | 2.95 µM | – | 23.2 µM | 3.86 µM | 3.19 µM
Cc1ccc(NC(=S)NC(=O)c2ccc(OCc3ccc(F)cc3)cc2)cc1-c1nc2ccccc2[nH]1 | – | 1.91 µM | – | 40.5 µM | 2.81 µM | 4.22 µM
Cc1ccc(NC(=S)NC(=O)c2ccc(OCc3cccc(Cl)c3Cl)cc2)cc1-c1nc2ccccc2[nH]1 | – | 63.7 µM | – | > 100 µM | > 100 µM | > 100 µM
Cc1ccc(NC(=O)NC(=O)c2ccc(OCc3ccc(Cl)c(Cl)c3)cc2)cc1-c1nc2ccccc2[nH]1 | – | 1.03 µM | – | 6.1 µM | 6.08 µM | 5.82 µM
Cc1ccc(NC(=O)NC(=O)c2ccc(OCc3ccc(F)cc3)cc2)cc1-c1nc2ccccc2[nH]1 | – | 0.98 µM | 0.037 µM | 35.1 µM | 0.16 µM | 0.24 µM
Cc1ccc(NC(=O)NC(=O)c2ccc(OCc3cccc(Cl)c3Cl)cc2)cc1-c1nc2ccccc2[nH]1 | – | 48.5 µM | – | 42.1 µM | > 100 µM | 87 µM
O=C(NC(=S)Nc1ccc(Cl)c(-c2nc3ccccc3[nH]2)c1)c1ccc(OCc2ccc(C(F)(F)F)cc2)cc1 | – | 12.9 µM | – | 63.9 µM | 5.33 µM | 7.83 µM
Cc1ccc(NC(=O)NC(=O)c2ccc(OCc3cccc(C(F)(F)F)c3)cc2)cc1-c1nc2ccccc2[nH]1 | – | 3.52 µM | – | 9.64 µM | 13.1 µM | 9.6 µM
O=C(NC(=S)Nc1ccc(Cl)c(-c2nc3ccccc3[nH]2)c1)c1ccc(OCc2ccc(Cl)cc2Cl)cc1 | – | 6.08 µM | – | 50.2 µM | 3.03 µM | 3.75 µM
CS(=O)(=O)c1ccc(C(=O)Nc2ccc(Cl)c(-c3ccccn3)c2)c(Cl)c1 [VISMODEGIB] | – | 1.08 µM | 0.013 µM | 10.9 µM | 2.39 µM | 2.88 µM

Second part, led by results:

IC50 [1] | IC50 [2] | IC50 [6] | Compound | IC50 [3] | IC50 [4] | IC50 [5]
0.281 µM | 6.61 µM | 0.65 µM | COc1cc(C(=O)NC(=S)Nc2cccc(NC(=O)c3ccccc3)c2)cc(OC)c1OC | 21.2 µM | 8.62 µM | 13.8 µM
– | 16.4 µM | – | Cc1ccc(NC(=O)NC(=O)c2ccc(OCc3ccccc3)cc2)cc1-c1nc2ccccc2[nH]1 | 30.1 µM | 39.4 µM | 35.1 µM
– | 7.83 µM | – | Cc1ccc(NC(=O)NC(=O)c2ccc(OCc3ccc(C(F)(F)F)cc3)cc2)cc1-c1nc2ccccc2[nH]1 | 15.3 µM | 14.9 µM | 16.8 µM
– | 23.7 µM | – | Cc1ccc(NC(=S)NC(=O)c2ccc(OCc3ccccc3Cl)cc2)cc1-c1nc2ccccc2[nH]1 | 57.1 µM | 45 µM | 51.4 µM
– | 1.87 µM | 0.158 µM | Cc1ccc(NC(=S)NC(=O)c2ccc(OCc3ccccc3F)cc2)cc1-c1nc2ccccc2[nH]1 | 6.44 µM | 3.07 µM | 2.42 µM
– | 15.4 µM | – | Cc1ccc(NC(=O)NC(=O)c2ccc(OCc3cccc(Cl)c3)cc2)cc1-c1nc2ccccc2[nH]1 | 16 µM | 20.8 µM | 28 µM
– | 2.62 µM | – | Cc1ccc(NC(=O)NC(=O)c2ccc(OCc3ccc(Cl)cc3Cl)cc2)cc1-c1nc2ccccc2[nH]1 | 12.2 µM | 2.74 µM | 2.55 µM
– | 8.2 µM | – | Cc1ccc(NC(=S)NC(=O)c2ccc(OCc3cccc(C(F)(F)F)c3)cc2)cc1-c1nc2ccccc2[nH]1 | 15.4 µM | 5.21 µM | 6.05 µM
0.019 µM | 0.59 µM | 0.025 µM | O=C(NC(=O)c1ccc(OCc2ccccc2F)cc1)Nc1ccc(Cl)c(-c2nc3ccccc3[nH]2)c1 | 2.93 µM | 0.12 µM | 0.87 µM
– | 28.8 µM | – | Cc1ccc(NC(=S)NC(=O)c2ccc(OCc3ccccc3)cc2)cc1-c1nc2ccccc2[nH]1 | 67.1 µM | 60.7 µM | 57.8 µM
– | 55.3 µM | – | Cc1ccc(NC(=S)NC(=O)c2ccc(OCc3cccc(F)c3)cc2)cc1-c1nc2ccccc2[nH]1 | > 100 µM | > 100 µM | 86.8 µM
